# Laboratory results from US20130267522A1, “METHODS FOR TREATING CANCER” (priority 2012, published 2013).
# Test system: naturally-occurring InvTCC
# Assay: Study of folate-vinblastine conjugate in dogs with naturally-occurring InvTCC (tumor response)
# Assay type: in vivo
# Conditions: IV once weekly, dose escalation from 0.2 mg/kg
# Method: A study was performed in dogs with naturally-occurring InvTCC to investigate antitumor activity and toxicity of folate targeted vinblastine treatment. The study of folate targeted vinblastine was performed in privately owned dogs with naturally-occurring InvTCC at the Purdue University Veterinary Teaching Hospital (PUVTH), Inclusion criteria for dogs in the study included: measurable, histologically-confirmed InvTCC; positive folate uptake detected by scintigraphy or FR expression observed in the tumor via IHC; expected survival of at least 6 weeks; and written dog owner consent. The study was open to dogs that had failed other therapies or who were not eligible for standard therapy.
# The folate-vinblastine conjugate EC0905 was used. Briefly, EC0905 is a water-soluble folate conjugate of desacetylvinblastine monohydrazide (DA VLBH), which is constructed with the DA VLBH drug moiety attached to a hydrophilic folate-peptide compound via an endosome-cleavable disulfide bond (FIG. 1). A dose escalation study was performed. EC0905 was administered IV once weekly (starting dose 0.2 mg/kg), Dose escalation was performed within and between dogs with at least 3 dogs in each dose group, and at least 6 dogs treated at the maximum tolerated dose (MTD) (increased by 0.02 mg/kg in each dose group). Toxicity was assessed by CBCs, serum chemistry profiles, urinalyses, physical exams, and owner observations. Toxicity was classified by Veterinary Cooperative Oncology Group (VCOG) criteria.
# The EC0905 dose was reduced by 10% if grade 2 toxicity was noted, and by 20% if grade 3 or higher toxicity occurred. Treatment was delayed by one week if the neutrophil count was<3000/mm^3 or platelet count <100,000/mm^3 the day treatment was due. The treatment protocol was scheduled to continue until 8 weeks beyond complete remission, or until cancer progression, or until unacceptable toxicity was noted.
# Physical exam, medical history, and CBC were obtained weekly. Monthly evaluation included CBC, serum biochemical profile, urinalysis, urinary tract ultrasound, and mapping of the bladder masses by ultrasound. Urinary tumors were measured by a single ultrasound operator, and estimated tumor volume was recorded. Prior to treatment and at 8-week intervals, complete tumor staging (thoracic radiography, full abdominal ultrasonography) was performed, and tumor stage determined by the World Health Organization criteria for canine urinary bladder tumors. Tumor response was defined as: complete remission (no cancer detected), partial remission (PR, ≧50% decrease in tumor volume and no new tumor lesions), stable disease (SD, <50% change in tumor volume and no new tumor lesions), and progressive disease (PD, ≧50% increase in tumor volume or the development of new tumor lesions).
substance,measurement,value
Pte-γGlu-(Glu(1-amino-1-deoxy-D-glucitol)-Glu)3-Glu(1-amino-1-deoxy-D-glucitol)-Cys(S-ethyl-3-(4-desacetylvinblastinyl)hydrazinecarboxylate) [EC0905],"Partial remission (PR), percent of cases",50%
same,"Partial remission (PR, ≧50% decrease in tumor volume and no new tumor lesions), number of dogs",5 dogs
same,"Stable disease (SD), percent of cases",50%
same,"Stable disease (SD, <50% change in tumor volume and no new tumor lesions), number of dogs",5 dogs
